Common to all, as to format: cell-based
For assay [1], the system named is E. coli NB27273-CDY0026 (parent). The experiment in a line: MIC by broth microdilution, isogenic E. coli parent strain. The following applies: Escherichia coli, read-out: Strain 1 MIC. Here is the method: (§1) Bacterial isolates were cultivated from −70° C. frozen stocks by two consecutive overnight passages at 35° C. in ambient air on 5% blood agar (Remel, Lenexa, Kans.). Quality control and P. aeruginosa ATCC 27853) is from the American Type Culture Collection (ATCC; Rockville, Md.) and PAO1 was received from Dr. K. Poole.
(§2) Strain NB27273 (BW25113 pspB::Km^r) was obtained from the Keio transposon insertion collection. The strain has the pspB gene replaced by a kanamycin resistance marker (BW25113 pspB::Km^r). This strain was cured of the transposon in pspB via FLP recombinase using published methodology. The resulting strain, BW25113 pspB, was used as a host for multicopy vectors expressing key β-lactamases. Multicopy plasmids directing constitutive expression of β-lactamases were established as follows: Synthetic, codon optimized genes encoding E. coli KPC2 and SHV12 β-lactamases were made by DNA2.0 (Palo Alto, Calif.). Each of the synthetic fragments were designed to contain NotI and NcoI restriction sites at their termini, allowing ligation into a NotI/NcoI digested pET28a(+) derivative for protein expression. […] The codon optimized nucleotide sequences and relevant primer recognition information is shown below:
(§3) The PCR products were then digested with XhoI and EcoRI and ligated into similarly digested plasmid pAH63-pstS(BlaP). Plasmid pAH63-pstS(BlaP) is a derivative of plasmid pAH63 (J Bacteriol: 183(21): 6384-6393) made by cloning the TEM-1 (bla) promoter and signal peptide encoding region from plasmid pBAD (J Bacteriol. 1995 July 177(14):4121-30) into plasmid pAH63. This fragment was PCR amplified from pBAD using primer pair E192 (ttcaCTGCAGtgaacgttgcgaagcaacggC) (SEQ ID NO:13) and E194 (TCGAggatcctcgagagcaaaaacaggaaggcaaaatgccg) (SEQ ID NO:14), digested with PstI and BamHI and inserted into similarly digested plasmid pAH63. Therefore, expression of β-lactamases from pAH63-pstS(BlaP) based constructs is constitutive and the signal sequence is provided to direct these proteins to the periplasm. […] To accomplish this, the inserts encompassing the β-lactamase genes, with the associated TEM promoter and signal sequences, were PCR amplified from their corresponding vectors using primer E269 (ccgTCTAGAcggatggcctttttgcgtttc) (SEQ ID NO:15) and E202 (aatcGAATTCttactgaccattaacgcccaagc) (SEQ ID NO:16) for the KPC2 construct and E204 (aatcGAATTCttaacgctgccagtgctcaatc) (SEQ ID NO:17) for the SHV12 construct. These fragments were then digested with XbaI and EcoRI, and each was inserted into pBAD18-kan that had been digested with the same enzymes to generate a pair of multicopy vectors expressing KPC2 and SHV12 respectively. These vectors were transformed into BW25113 pspB to generate strains NB27273-CDY0033 (expressing KPC2) and NB27273-CDY0030 (expressing SHV12). The pBAD18-kan vector also contains the TEM promoter region and signal sequence, (but lacks any intact β-lactamase genes) and was transformed into BW25113 pspB using standard protocols to generate the control strain NB27273-CDY0026. […] Susceptibility Testing
(§4) Minimal Inhibitory Concentrations (MICs) were determined by the broth microdilution method in accordance with Clinical and Laboratories Institute (CLSI) guidelines. In brief, fresh overnight bacterial cultures were suspended in sterile saline, and adjusted to a 0.5 McFarland turbidity standard. Bacterial suspensions were then diluted in cation adjusted Mueller-Hinton Broth (MHB II; BBL) to yield a final inoculum of approximately 5×10^5 colony-forming units (CFU)/mL. A master plate of antibiotics was prepared at a concentration equivalent to hundred-fold the highest desired final concentration in 100% dimethyl sulfoxide (DMSO). The master antibiotic plate was then diluted by serial twofold dilution with a multichannel pipette. The resulting dilution series of compounds were diluted 1:10 with sterile water leading to a 10% DMSO final concentration.
(In general: In broth dilution the organism is exposed to a series of concentrations in liquid medium.)

Assay [2] deals with E. coli NB27273-CDY0033 (KPC2). The experiment in a line: MIC by broth microdilution, isogenic E. coli strain expressing KPC2. The following applies: Escherichia coli, read-out: Strain 2 MIC. The protocol: as §1, §2, §3, §4
The subject of assay [3] is E. coli NB27273-CDY0030 (SHV12). The experiment in a line: MIC by broth microdilution, isogenic E. coli strain expressing SHV12. The following applies: Escherichia coli, read-out: Strain 3 MIC. Here is the method: as §1, §2, §3, §4
The next assay relates to E. coli strain 25922. The experiment in a line: MIC by broth microdilution, E. coli strain 25922. The following applies: Escherichia coli, 25922, E. coli strain 25922; read-out: Ec 25922 (MIC). The method in brief:
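CLSI broth microdilution in cation-adjusted Mueller-Hinton broth, inoculum about 5×10^5 CFU/mL, 10% DMSO from the diluted series, 20 h at 35-37° C. MIC is the lowest concentration preventing visible growth, read by eye and at 600 nm.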

The test system of a further assay is E. coli containing KPC-2. The experiment in a line: MIC by broth microdilution, E. coli containing KPC-2 (Ec KPC2 Iso). The following applies: Escherichia coli, read-out: Ec KPC2 Iso (MIC), E. coli containing KPC-2 (carbapenemase from Klebsiella pneumoniae). The method in brief: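 Host E. coli BW25113 pspB carrying multicopy pBAD18-kan plasmid with constitutive TEM-promoter KPC-2 expression (periplasmic signal sequence); broth microdilution per CLSI in cation-adjusted Mueller-Hinton broth, inoculum ~5×10^5 CFU/mL, compounds twofold serially diluted from DMSO masters (10% DMSO in dilution series added).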

≈ marks a conversion by molar mass, not a printed value. Some results are limits rather than exact numbers.

With `Nc1nc(/C(=N/OC2(C(=O)O)CC2)C(=O)N[C@@H]2C(=O)N(S(=O)(=O)O)[C@@H]2CN2CCOC2=O)cs1` [Example 22, 1-(((Z)-(1-(2-aminothiazol-4-yl)-2-oxo-2-(((3S,4R)-2-oxo-4-((2-oxooxazolidin-3-yl)methyl)-1-sulfoazetidin-3-yl)amino)ethylidene)amino)oxy)cyclopropanecarboxylic acid], the MIC (in general, the smallest concentration in the dilution series that meets the test's criterion for growth inhibition) is no more than 0.06 mg/L in assay [1]; 0.125 mg/L (≈ 0.241 µM) in assay [2]; 0.5 mg/L (≈ 0.964 µM) in assay [3]; 0.25 mg/L (≈ 0.482 µM) in the assay on E. coli strain 25922; 0.125 mg/L (≈ 0.241 µM) in the assay with E. coli containing KPC-2.
Take `CC(C)(O/N=C(\C(=O)N[C@@H]1C(=O)N(S(=O)(=O)O)[C@@H]1Cn1nnc(CN)n1)c1csc(N)n1)C(=O)O` [Example 4, 2-(((Z)-(2-(((2R,3S)-2-((5-(aminomethyl)-2H-tetrazol-2-yl)methyl)-4-oxo-1-sulfoazetidin-3-yl)amino)-1-(2-aminothiazol-4-yl)-2-oxoethylidene)amino)oxy)-2-methylpropanoic acid]: the MIC in assay [1] worked out at 0.5 mg/L (≈ 0.939 µM); in assay [2], 8 mg/L (≈ 15 µM); in assay [3], 2 mg/L (≈ 3.76 µM); with E. coli strain 25922, 1 mg/L (≈ 1.88 µM); with E. coli containing KPC-2, 8 mg/L (≈ 15 µM).
On to `CC1(C)[C@H](NC(=O)/C(=N\OCc2cc(=O)c(O)cn2O)c2csc(N)n2)C(=O)N1OS(=O)(=O)O` [compound 3, reference compound], for which the MIC is 0.25 mg/L (≈ 0.482 µM) in assay [1], 0.5 mg/L (≈ 0.964 µM) in assay [2] and greater than 32 mg/L in assay [3].
As for `N=C(NC1CCNCC1)c1ccc(OC[C@H](O/N=C(\C(=O)N[C@@H]2C(=O)N(S(=O)(=O)O)[C@@H]2Cn2cncn2)c2csc(N)n2)C(=O)O)cc1` [Example 31, (S)-2-(((Z)-(2-(((2R,3S)-2-((1H-1,2,4-triazol-1-yl)methyl)-4-oxo-1-sulfoazetidin-3-yl)amino)-1-(2-aminothiazol-4-yl)-2-oxoethylidene)amino)oxy)-3-(4-(N-(piperidin-4-yl)carbamimidoyl)-phenoxy)propanoic acid], the MIC was 0.125 mg/L (≈ 0.177 µM) in assay [1]; 0.25 mg/L (≈ 0.354 µM) in assay [2]; 0.5 mg/L (≈ 0.708 µM) in assay [3]; 0.25 mg/L (≈ 0.354 µM) in the assay with E. coli strain 25922; 0.25 mg/L (≈ 0.354 µM) with E. coli containing KPC-2.
Consider `NC(=O)OC[C@@H]1[C@H](NC(=O)/C(=N\OCC(=O)O)c2csc(N)n2)C(=O)N1S(=O)(=O)O` [compound 2, reference compound], for which the minimal inhibitory concentration (MIC) was 0.125 mg/L (≈ 0.268 µM) in assay [1], 1 mg/L (≈ 2.14 µM) in assay [2] and greater than 32 mg/L in assay [3].
Taken in the same sequence, the figures for `CC1(C)[C@H](NC(=O)/C(=N\O[C@@H](COc2ccc(C(=N)NC3CCNCC3)cc2)C(=O)O)c2csc(N)n2)C(=O)N1OS(=O)(=O)O` [compound 4, reference compound] were no more than 0.06 mg/L, 0.25 mg/L (≈ 0.374 µM) and 32 mg/L (≈ 47.9 µM).
Regarding `N=C(N)NCc1cn(C[C@@H]2[C@H](NC(=O)/C(=N\OC3(C(=O)O)CC3)c3csc(N)n3)C(=O)N2S(=O)(=O)O)nn1` [Example 28, 1-(((Z)-(1-(2-aminothiazol-4-yl)-2-(((2R,3S)-2-((4-(guanidinomethyl)-1H-1,2,3-triazol-1-yl)methyl)-4-oxo-1-sulfoazetidin-3-yl)amino)-2-oxoethylidene)amino)oxy)-cyclopropanecarboxylic acid], the MIC in assay [1] was no more than 0.06 mg/L; in assay [2], no more than 0.06 mg/L; in assay [3], 0.5 mg/L (≈ 0.875 µM).
For the compound `C[C@H]1[C@H](NC(=O)/C(=N\OC(C)(C)C(=O)O)c2csc(N)n2)C(=O)N1S(=O)(=O)O` [compound 1, reference compound], the MIC in assay [3] is greater than 32 mg/L.
As to `CC(C)(N)CCNCc1cnn(C[C@@H]2[C@H](NC(=O)/C(=N\OC3(C(=O)O)CC3)c3csc(N)n3)C(=O)N2S(=O)(=O)O)n1` [Example 131, 1-(((Z)-(2-(((2R,3S)-2-((4-(((3-amino-3-methylbutyl)amino)methyl)-2H-1,2,3-triazol-2-yl)methyl)-4-oxo-1-sulfoazetidin-3-yl)amino)-1-(2-aminothiazol-4-yl)-2-oxoethylidene)amino)oxy)cyclopropanecarboxylic acid], the MIC is 1 mg/L (≈ 1.63 µM) in the assay with E. coli strain 25922 and 2 mg/L (≈ 3.25 µM) with E. coli containing KPC-2.
Taken in the same sequence, the figures for `Cc1cnn(C[C@@H]2[C@H](NC(=O)/C(=N\OC(C)(C)C(=O)O)c3csc(N)n3)C(=O)N2S(=O)(=O)O)n1` [Example 55, 2-(((Z)-(1-(2-aminothiazol-4-yl)-2-(((2R,3S)-2-((4-methyl-2H-1,2,3-triazol-2-yl)methyl)-4-oxo-1-sulfoazetidin-3-yl)amino)-2-oxoethylidene)amino)oxy)-2-methylpropanoic acid] were 16 mg/L (≈ 31 µM) and 4 mg/L (≈ 7.74 µM).
In the case of `Nc1nc(/C(=N/OCC(=O)O)C(=O)N[C@@H]2C(=O)N(S(=O)(=O)O)[C@@H]2CN2CCOC2=O)cs1` [Example 21, 2-(((Z)-(1-(2-aminothiazol-4-yl)-2-oxo-2-(((3S,4R)-2-oxo-4-((2-oxooxazolidin-3-yl)methyl)-1-sulfoazetidin-3-yl)amino)ethylidene)amino)oxy)acetic acid], the MIC with E. coli strain 25922 was found to be 0.25 mg/L (≈ 0.508 µM); with E. coli containing KPC-2 it was 0.5 mg/L (≈ 1.02 µM).
Taken in the same sequence, the figures for `NCCCCNCc1cnn(C[C@@H]2[C@H](NC(=O)/C(=N\OC3(C(=O)O)CC3)c3csc(N)n3)C(=O)N2S(=O)(=O)O)n1` [Example 118, 1-(((Z)-(2-(((2R,3S)-2-((4-(((4-aminobutyl)amino)methyl)-2H-1,2,3-triazol-2-yl)methyl)-4-oxo-1-sulfoazetidin-3-yl)amino)-1-(2-aminothiazol-4-yl)-2-oxoethylidene)amino)oxy)cyclopropanecarboxylic acid] were 0.5 mg/L (≈ 0.832 µM) and 0.25 mg/L (≈ 0.416 µM).
Consider `C[n+]1cccc(CNCc2cnn(C[C@@H]3[C@H](NC(=O)/C(=N\OC4(C(=O)O)CC4)c4csc(N)n4)C(=O)N3S(=O)(=O)O)n2)c1` [Example 137, (2R,3S)-3-((Z)-2-(2-aminothiazol-4-yl)-2-((1-carboxycyclopropoxy)-imino)acetamido)-2-((4-((((1-methylpyridin-1-ium-3-yl)methyl)amino)methyl)-2H-1,2,3-triazol-2-yl)methyl)-4-oxoazetidine-1-sulfonate], for which the MIC was found to be 1 mg/L with E. coli strain 25922 and 0.5 mg/L in the assay with E. coli containing KPC-2.
Taken in the same sequence, the figures for `CC(C)(O/N=C(\C(=O)N[C@@H]1C(=O)N(S(=O)(=O)O)[C@@H]1CN1CCOC1=O)c1csc(N)n1)C(=O)O` [Example 2, 2-(((Z)-(1-(2-aminothiazol-4-yl)-2-oxo-2-(((3S,4R)-2-oxo-4-((2-oxooxazolidin-3-yl)methyl)-1-sulfoazetidin-3-yl)amino)ethylidene)amino)oxy)-2-methylpropanoic acid] were 1 mg/L (≈ 1.92 µM) and 0.5 mg/L (≈ 0.961 µM).

For the origin of these results see US10369138B2, “Monobactam organic compounds for the treatment of bacterial infections” (Novartis AG, priority 2014, dated 2019).
